Test results published in patent publication US4038407A, “Benzisothiazoline-1,1-dioxide derivatives, compositions and methods” (Boehringer Ingelheim GmbH, priority 1975, dated 1977).
Counter-ions that a name gives are not always drawn.

Experiments:
Acute toxicity in mice = conditions: mouse, in vivo, observation time 14 days
Procedure: The acute toxicity of the compounds in question was determined in mice (observation time: 14 days) after oral or intravenous application. The LD50 was calculated from the percentage of animals which died after different doses within the observation time (see J. Pharmacol. exp. Therap. 96, 99 (1949)): […]

[1] = test system: isolated, spontaneously beating auricles of guinea pigs; assay: Effect on heart rate in the isolated auricle of the guinea pig; format: cell-based; conditions: Cavia porcellus; 10^-5 g/ml in organ bath, tyrode solution, 30° C., average of 5 auricles; read-out: Change in heart rate in %
Procedure: 2. Effect on heart rate in the isolated auricle of the guinea pig:
The effect on isolated, spontaneously beating auricles of guinea pigs of male and female sex having a body weight between 300 and 400 gm were investigated in an organ bath filled with tyrode solution. The nutritive solution was infused with carbogen (95% of O2 and 5% of CO2) and maintained at 30° C. The contractions were registered isometrically with a Statham-Force-transducer on a Grass-polygraph. The test compound was added to the organ bath so that the final concentration was 10^-^5 g/ml in each case. 5 auricles were used for each solution.
The following table gives the percentage decrease in the heart rate from an average of 5 auricles at a test compound concentration of 10^-^5 g/ml).

[2] = test system: heart rate of guinea pigs under urethane anesthesia; assay: Activity on heart frequency of anesthetized guinea pigs; format: in vivo, guinea pig; conditions: ECG
Procedure: 1. Activity on heart frequency of anesthetized guinea pigs:
The heart rate of guinea pigs under urethane anesthesia was registered by an electrocardiogram. The test compound was administered intravenously at increasing dosage increments between 0.5 and 20 mg/kg.

## COc1ccc(CCN(C)CCCN2Cc3cc(OC)c(OC)cc3C2=O)cc1OC [A, 5,6-Dimethoxy-2N-(3-[α-(3,4-dimethoxy)-phenylethyl-methylamino]-propyl)-phthalimidine hydrochloride]
Acute toxicity in mice; iv
  LD50 at 336 h: 98 mg/kg
Acute toxicity in mice; po
  LD50 at 336 h: 1570 mg/kg
[1]
  inhibition at 10 µg/mL: 52%
[2]; 0.5 mg/kg i.v.
  Percentage change in heart rate: -23.5%
[2]; 1.0 mg/kg i.v.
  Percentage change in heart rate: -36.1%
[2]; 2.0 mg/kg i.v.
  Percentage change in heart rate: -47.2%
[2]; 5.0 mg/kg i.v.
  Percentage change in heart rate: -51.6%
[2]; 10.0 mg/kg i.v.
  Percentage change in heart rate: -59.1%
[2]; 20.0 mg/kg i.v.
  Percentage change in heart rate: -67.2%

## COc1ccc(CCN(C)CCCN2Cc3cc(OC)c(OC)cc3S2(=O)=O)cc1OC [B, 5,6-Dimethoxy-2-(3-[α-(3,4-dimethoxy)-phenylethyl-methylamino]-propyl)-1,2-benzisothiazoline-1,1-dioxide hydrochloride]
Acute toxicity in mice; iv
  LD50 at 336 h: 100 mg/kg
[1]
  inhibition at 10 µg/mL: 60%
[2]; 0.5 mg/kg i.v.
  Percentage change in heart rate: -9.8%
[2]; 1.0 mg/kg i.v.
  Percentage change in heart rate: -20.0%
[2]; 2.0 mg/kg i.v.
  Percentage change in heart rate: -27.4%
[2]; 5.0 mg/kg i.v.
  Percentage change in heart rate: -37.6%
[2]; 10.0 mg/kg i.v.
  Percentage change in heart rate: -46.9%
[2]; 20.0 mg/kg i.v.
  Percentage change in heart rate: -53.9%

## COc1cc2c(cc1OC)C(=O)N(CCCN(C)CCc1ccc3c(c1)OCO3)C2 [D, 5,6-Dimethoxy-2N-(3-[α-(3,4-methylenedioxy)-phenylethylmethylamino]-propyl)-phthalimidine hydrochloride]
[1]
  inhibition at 10 µg/mL: 51%

## CN(CCCN1Cc2cc3c(cc2C1=O)OCCO3)CCc1ccc2c(c1)OCO2 [E, 5,6-Ethylenedioxy-2N-(3-[α-(3,4-methylenedioxy)-phenylethyl-methylamino]-propyl)-phthalimidine hydrochloride]
[1]
  inhibition at 10 µg/mL: 48%
